# From article PMC12560758, “YsxC is a placeholder for ribosomal protein uL2 during 50S ribosomal subunit assembly” (Nucleic Acids Research, 2025)
# Molecular target: T1, YsxC (Bacillus subtilis, UniProt P38424)
# T1 construct: gene engB; full-length YsxC, 22 kDa, N-terminal His6 tag (pET15b-ysxC) cleaved by thrombin, expressed in E. coli BL21(DE3)
# Experiment: cryo-EM structure of the complex on the […].5S(YsxC) particle
# Assay type: binding
# Settings: 2 mM GMPPNP, 15 mM MgCl2, 50 mM NH4Cl, pH 7.5, 37 °C; nucleotide site; non-hydrolyzable GTP analogue
# T1 sequence (P38424 whole entry): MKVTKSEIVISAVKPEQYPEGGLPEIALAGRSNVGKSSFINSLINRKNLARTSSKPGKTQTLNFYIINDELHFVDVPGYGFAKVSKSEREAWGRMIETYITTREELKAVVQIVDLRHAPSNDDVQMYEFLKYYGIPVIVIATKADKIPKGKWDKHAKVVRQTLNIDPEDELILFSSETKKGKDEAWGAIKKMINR
structure (smiles),measurement,value
Nc1nc2c(ncn2[C@@H]2O[C@H](COP(=O)(O)OP(=O)(O)NP(=O)(O)O)[C@@H](O)[C@H]2O)c(=O)[nH]1 [GMPPNP],cryo-EM structure of the complex on the 44.5S(YsxC) particle,"the density corresponding to the GMPPNP nucleotide (colored in blue), are indicated"
